In patent US10758609B2, “Cross-reactive T-cell epitopes of HIV, SIV, and FIV for vaccines in humans and cats” (priority 2015, dated 2020):

Tests used:
[1] = test system: CD8^+ T cells from HIV^+ subjects; experiment: FACS-based intracellular staining (ICS) for cytolysin (perforin) and cytotoxins (GrzA, GrzB) in CD8+ T cells; conditions: HIV+ human subjects; for Cyto: CD8+ T-cell cytotoxins (perforin, GrzA & B), frequency of responders: FIV epitope peptide; for Cyto (cytolysin/cytotoxin production), frequency of responders: FIV peptides
Procedure, shortened: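 Peptides tested with PBMC and T cells from HIV^+ subjects, some on ART. CFSE proliferation positive at ≥2% CFSE^low CD4^+ or CD8^+ T cells; intracellular perforin, granzyme A and B staining by FACS positive at ≥0.2%.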

PBMC from cat SBA = format: cell-based; conditions: PBMC of cat SBA, 14 wk post-challenge boost

Row | Sequence | Cyto: CD8+ T-cell cytotoxins (perforin, GrzA & B), frequency of responders [1] | Cyto (cytolysin/cytotoxin production), frequency of responders [1] | GrzA mRNA (PBMC from cat SBA) | GrzB mRNA (PBMC from cat SBA) | IFNγ mRNA (PBMC from cat SBA) | IL2 mRNA (PBMC from cat SBA) | perforin mRNA (PBMC from cat SBA)
1 | WRMLIDFRVLNKL [FRT3-4] | ++++ (>54% (++++)) | ++++ (>54% (++++)) | – | – | – | – | –
2 | PTDMATLIMAAPGCA [Fp4-3] | – | – | low | no detectable levels | high | low | no detectable levels
3 | KKKSGKWRMLIDFRV [FRT3-3] | ++++ (>54% (++++)) | ++++ (>54% (++++)) | – | – | – | – | –
